What was measured:
C. elegans = assay: Immunoblot of ceHIF (HIF-1) in extracts of treated worms; assay type: in vivo; conditions: 200 μM in liquid media, 6 or 16 hrs
Protocol: Immunoblots of ceHIF levels in extracts of c. elegans were carried out to monitor regulation by hypoxia and iron chelation. Firstly, the oxygen dependence of protein induction was analysed. Worms were grown on plates in bell jars flushed with air (N), or with oxygen/balance nitrogen having an oxygen concentration of 5%, 1%, 0.5% or 0.1% for 18 hrs. A graded increase in protein level was seen as the oxygen level was reduced below 5% with the highest level of induction at 0.5 and 0.1% oxygen concentration. The time course of protein induction was then studied. Worms were grown in bell jars flushed with a 0.1% oxygen/balance nitrogen mixture for 0, 4, 8, 16 or 24 hrs before preparation of extracts. […] The time course of protein decay on re-oxygenation was then assessed. Worms were grown in bell jars flushed with air (N) or a 0.1% oxygen/balance nitrogen mixture. Extracts were made either immediately, or after 4 and 8 minutes of re-oxygenation. Decay of ceHIF protein was very rapid on re-oxygenation. […] A time course RNAse protection assay showing cehif mRNA levels in worms exposed to 0.1% oxygen/balance nitrogen for 0, 4, 8, 16 and 24 hrs was carried out. No induction of ceHIF mRNA by hypoxia was seen. […] Induction by iron chelation was also studied in C. elegans. […]

HIF-α/pVHL interaction = assay: Interaction of HIF-1α and pVHL.HA reticulocyte IVTTs, anti-HA co-immunoprecipitation; assay type: biochemical, human; conditions: 100 μM added to the HIF-1α IVTT
Protocol: ^35S-Methionine labelled […] subunits and pVHL.HA were produced separately by IVTT (in vitro transcription and translation) in reticulocyte lysates. IVTTs were performed under different conditions, mixed, and assayed for interaction by anti-HA co-immunoprecipitation. These in vitro assays allowed analysis of the HIFα/pVHL interaction using the recombinant proteins.
Labelled HIF-1α and pVHL.HA were generated separately in reticulocyte lysates (IVTT), in the presence or absence of Co (II), desferrioxamine, or Fe(II). Lysates were mixed in various combinations, and interactions assayed by anti-HA immunoprecipitation.
• 1. G. L. Semenza, Genes Dev 14, 1983-91. (2000). • 2. N. V. Iyer, et al., Genes Dev. 12, 149-162 (1997). • 3. E. Maltepe, J. V. Schmidt, D. Baunoch, C. A. Bradfield, M. C. Simon, Nature 386, 403-407 (1997). • 4. G. L. Wang, B.-H. Jiang, E. A. Rue, G. L. Semenza, Proc. Natl. Acad. Sci. USA 92, 5510-5514 (1995). • 5. S. Salceda, J. Caro, J. Biol. Chem. 272, 22642-22647 (1997). • 6. L. E. Huang, J. Gu, M. Schau, H. F. Bunn, Proc. Natl. Acad. Sci. USA 95, 7987-7992 (1998). • 7. M. S. Wiesener, et al., Blood 92, 2260-2268 (1998). • 8. P. H. Maxwell, et al., Nature 399, 271-275 (1999). • 9. K. Iwai, et al., Proc. Natl. Acad. Sci. USA 96, 12436-12441 (1999). • 10. J. Lisztwan, G. Imbert, C. Wirbelauer, M. Gstaiger, W. Krek, Genes Dev 13, 1822-33 (1999). • 11. M. E. Cockman, et al., J Biol Chem (2000). • 12. M. Ohh, et al., Nat Cell Biol 2, 423-7. (2000). • 13. T. Kamura, et al., Proc Natl Acad Sci USA 97, 10430-5. (2000). • 14. K. Tanimoto, Y. Makino, T. Pereira, L. Poellinger, Embo J 19, 4298-309. (2000). • 15. M. A. Goldberg, S. P. Dunning, H. F. Bunn, Science 242, 1412-1415 (1988). • 16. G. L. Wang, G. L. Semenza, Blood 82, 3610-3615 (1993). • 17. G. L. Semenza, Cell 98, 281-284 (1999). • 18. Hypoxia (<0.1% oxygen) was obtained in a workstation with O2, CO2 and temperature control (Ruskinn Technologies, Leeds, UK). For hypoxic harvest, buffers were preincubated in the chamber overnight. […]

EGLN-2 and EGLN-3 = assay: Modification and pVHL binding assay with reticulocyte lysate programmed with EGLN-2 or EGLN-3; assay type: biochemical, human; conditions: desferrioxamine 200 μM, cobaltous chloride 200 μM
Excerpt: Protein containing HIF-1 sequence (amino acids 549-582) was generated in a reticulocyte in vitro transcription translation reaction in the presence of 100 micromolar desferrioxamine, retrieved and then exposed to […] translates containing the putative enzymes as described above. These proteins contain the critical proline (564) which can be modified by hydroxylation and which enables recognition by von Hippel Lindau tumour suppressor protein (pVHL).
The modification of the HIF-1 sequence was assayed by the binding of the HIF-1 to radiolabelled pVHL, generated by in vitro transcription and translation of a pcDNA3 vector containing the human wild type pVHL open reading frame in a rabbit reticulocyte lysate in the presence of ^35S-methionine.
Modification and pVHL binding assays were performed as described above. Rabbit reticulocyte lysate was programmed with pcDNA3 based plasmids containing no insert, an insert encoding the full open reading frame of the human homologue of C. elegans Egl-9 known as EGLN-2, or an insert encoding the full open reading frame of the human homologue known as EGLN-3. Modification was performed in the absence of additives, in the presence of oxalylglycine, oxalylglycine plus 2-oxoglutarate, 200 μM desferrioxamine or 200 μM cobaltous chloride.

Enzyme activity (modification of HIF-1 to VHL binding form) (EGLN-2 and EGLN-3)	SMILES	ceHIF protein level (C. elegans)	capture of HIF-1α by pVHL.HA (HIF-α/pVHL interaction)
	c1ccc(-c2ccccn2)nc1 [2′, 2′ dipyrridyl, reference compound]	striking Induction of ceHIF	
diminished	CC(=O)N(O)CCCCCNC(=O)CCC(=O)N(O)CCCCCNC(=O)CCC(=O)N(O)CCCCCN [desferrioxamine]		greatly diminished capture
